Source: patent US20260034094A1, “COMPOSITIONS AND METHODS FOR INDUCING FERROPTOSIS” (Kojin Therapeutics, Inc., priority 2022, published 2026)

How the values were obtained:
RKN cells = test: RKN cell profiling assay (cell viability, CellTiter-Glo); format: cell-based; conditions: cell viability, read-out: Cell Killing EC50
How it was run: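 Viability read by CellTiter-Glo luminescence after 96 h compound exposure (0.5% DMSO final) of cells plated at 1,000/well in 10% FBS F-12 and allowed 24 h attachment. Four-parameter fits gave EC50; rescue arms used ferrostatin-1, 1.5 μM, present from seeding.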

human recombinant GCL = human recombinant GCL (Homo sapiens (Human), UniProt P48506); test: GCL enzyme profiling assay (ADP-Glo luminescence); format: biochemical; conditions: human recombinant GCL, ADP-Glo; read-out: GCL IC50
Chain of human recombinant GCL (P48506 whole entry): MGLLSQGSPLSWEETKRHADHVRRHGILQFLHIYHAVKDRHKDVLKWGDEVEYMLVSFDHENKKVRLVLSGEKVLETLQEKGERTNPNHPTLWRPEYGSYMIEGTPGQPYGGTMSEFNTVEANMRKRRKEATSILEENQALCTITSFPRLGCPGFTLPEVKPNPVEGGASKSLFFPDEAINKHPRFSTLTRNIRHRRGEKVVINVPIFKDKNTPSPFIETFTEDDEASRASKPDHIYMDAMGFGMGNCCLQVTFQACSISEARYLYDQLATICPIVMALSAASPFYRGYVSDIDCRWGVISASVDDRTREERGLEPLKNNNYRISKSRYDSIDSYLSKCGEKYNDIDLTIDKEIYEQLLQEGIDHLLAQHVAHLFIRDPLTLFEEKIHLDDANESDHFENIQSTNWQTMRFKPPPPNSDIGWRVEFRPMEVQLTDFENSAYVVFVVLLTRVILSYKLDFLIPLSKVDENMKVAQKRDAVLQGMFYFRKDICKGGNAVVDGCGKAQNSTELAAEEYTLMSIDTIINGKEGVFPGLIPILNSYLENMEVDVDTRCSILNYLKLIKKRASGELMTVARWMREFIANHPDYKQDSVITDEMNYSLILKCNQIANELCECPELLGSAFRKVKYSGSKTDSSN
How it was run: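 IC50 fitted by four-parameter logistic to luminescent ADP formation (ADP-Glo). Reaction at room temperature in HEPES pH 7.5 with 30 mM MgCl2, 0.2% F-127, 1% DMSO; 5 nM GCL and 0.6 mM ATP preincubated 1 h before adding 1 mM glutamate plus 1.2 mM α-aminobutyrate for 2 h.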

Compound	EC50 (RKN cells) [µM]	IC50 (human recombinant GCL) [µM]
N=S(=O)(CCC(Cc1ccccc1)C(F)(F)F)CC[C@H](N)C(=O)O (stereo partly drawn) [Compound 292, (2S)-2-amino-4-(3-benzyl-4,4,4-trifluorobutylsulfonimidoyl)butanoic acid]	≥ 1000	≤ 20
CC(CCS(=N)(=O)CC[C@H](N)C(=O)O)(c1ccccc1)C(F)(F)F (some centres unmarked) [Compound 293]	≥ 1000	≤ 20
N=S(=O)(CC[C@H](N)C(=O)O)CCC12CC(C1)C2 (some centres unmarked) [Compound 294]	< 1000	≤ 20
COC(C)(C)CCCS(=N)(=O)CC[C@H](N)C(=O)O (some centres unmarked) [Compound 295]	≥ 1000	20 to 2000
N=S(=O)(CC[C@H](N)C(=O)O)CCC1(C(F)(F)F)CCC1 (some centres unmarked) [Compound 296]	< 1000	≤ 20
N=S(=O)(CC[C@H](N)C(=O)O)CCC1(O)CCCCC1 (some centres unmarked) [Compound 297]	≥ 1000	20 to 2000
C#CC(C)(C)CCS(=N)(=O)CC[C@H](N)C(=O)O (some centres unmarked) [Compound 299]	< 1000	20 to 2000
CC1(CCS(=N)(=O)CC[C@H](N)C(=O)O)CCCCC1 (some centres unmarked) [Compound 300]	≥ 1000	20 to 2000
N=S(=O)(CC[C@H](N)C(=O)O)CCC(O)(C(F)(F)F)C(F)(F)F (some centres unmarked) [Compound 301]	< 1000	≤ 20
N=S(=O)(CC[C@H](N)C(=O)O)CCC1(O)[C@H]2C[C@@H]3C[C@@H](C[C@H]1C3)C2 (some centres unmarked) [Compound 302]	≥ 1000	20 to 2000
N=S(=O)(CC[C@H](N)C(=O)O)CCC1(O)CC(F)(F)C1 (some centres unmarked) [Compound 303]	< 1000	20 to 2000
COC(=O)C(CCS(=N)(=O)CC[C@H](N)C(=O)O)C(F)(F)F (some centres unmarked) [Compound 305]	≥ 1000	≤ 20
N=S(=O)(CCC(C(=O)O)C(F)(F)F)CC[C@H](N)C(=O)O (some centres unmarked) [Compound 306]	< 1000	≤ 20
CNC(=O)C(CCS(=N)(=O)CC[C@H](N)C(=O)O)C(F)(F)F (some centres unmarked) [Compound 307]	< 1000	20 to 2000
N=S(=O)(CCC(C(N)=O)C(F)(F)F)CC[C@H](N)C(=O)O (some centres unmarked) [Compound 308]	< 1000	20 to 2000
N=S(=O)(CCC(c1ccccc1Cl)C(F)(F)F)CC[C@H](N)C(=O)O (some centres unmarked) [Compound 309]	< 1000	≤ 20
N=S(=O)(CCC(c1ccc2ccccc2c1)C(F)(F)F)CC[C@H](N)C(=O)O (some centres unmarked) [Compound 310]	< 1000	≤ 20
CC1(CCCS(=N)(=O)CC[C@H](N)C(=O)O)COC1 (some centres unmarked) [Compound 312]	< 1000	20 to 2000
COCC(CCS(=N)(=O)CC[C@H](N)C(=O)O)C(F)(F)F (some centres unmarked) [Compound 319]	< 1000	20 to 2000
COCC(C)(C)CCS(=N)(=O)CC[C@H](N)C(=O)O (some centres unmarked) [Compound 321]	< 1000	20 to 2000
N=S(=O)(CC[C@H](N)C(=O)O)CCC(O)(c1ccc(OC(F)(F)F)cc1)C(F)(F)F (stereo partly drawn) [Compound 330, (2S)-2-amino-4-(4,4,4-trifluoro-3-hydroxy-3-(4-(trifluoromethoxy)phenyl)butylsulfonimidoyl)butanoic acid]	≥ 1000	≤ 20
N=S(=O)(CC[C@H](N)C(=O)O)CCC(O)(c1cc2ccccc2cn1)C(F)(F)F (stereo partly drawn) [Compound 331, (2S)-2-amino-4-(4,4,4-trifluoro-3-hydroxy-3-(isoquinolin-3-yl)butylsulfonimidoyl)butanoic acid]	< 1000	≤ 20
N[C@@H](CCS(=O)(=O)CCC(O)(c1cc2ccccc2cn1)C(F)(F)F)C(=O)O (stereo partly drawn) [Compound 332, (2S)-2-amino-4-((4,4,4-trifluoro-3-hydroxy-3-(isoquinolin-3-yl)butyl)sulfonyl)butanoic acid]	≥ 1000	20 to 2000
N=S(=O)(CC[C@H](N)C(=O)O)CCC(O)(C(=O)O)C(F)(F)F (some centres unmarked) [Compound 333]	≥ 1000	20 to 2000
N=S(=O)(CC[C@H](N)C(=O)O)CCC(O)(c1ccc(Oc2ccccc2)cc1)C(F)(F)F (some centres unmarked) [Compound 334]	< 1000	≤ 20

Compound	EC50 (RKN cells) [µM]	IC50 (human recombinant GCL) [µM]
N=S(=O)(CCCC(O)(c1ccc(-c2ccccc2)cc1)C(F)(F)F)CC[C@H](N)C(=O)O (some centres unmarked) [Compound 335]	≥ 1000	20 to 2000
N=S(=O)(CC[C@H](N)C(=O)O)CCC(O)(c1ccc(C(F)(F)F)cc1)C(F)(F)F (some centres unmarked) [Compound 338]	≥ 1000	≤ 20
N=S(=O)(CC[C@H](N)C(=O)O)CCC(O)(c1nc2ccccc2[nH]1)C(F)(F)F (some centres unmarked) [Compound 343]	< 1000	20 to 2000
N=S(=O)(CC[C@H](N)C(=O)O)CCC(O)(c1nccs1)C(F)(F)F (some centres unmarked) [Compound 344]	< 1000	≤ 20
N=[S@@](=O)(CC[C@H](N)C(=O)O)CC[C@@](O)(c1ccccc1)C(F)(F)F [Compound 347, (S)-2-amino-4-((R,3R)-4,4,4-trifluoro-3-hydroxy-3-phenylbutylsulfonimidoyl)butanoic acid]	< 1000	≤ 20
N=[S@@](=O)(CC[C@H](N)C(=O)O)CC[C@](O)(c1ccccc1)C(F)(F)F [Compound 348, (S)-2-amino-4-((R,3S)-4,4,4-trifluoro-3-hydroxy-3-phenylbutylsulfonimidoyl)butanoic acid]	< 1000	≤ 20
N=S(=O)(CC[C@H](N)C(=O)O)CCC(O)(C1CC1)C(F)(F)F (stereo partly drawn) [Compound 349, (2S)-2-amino-4-(3-cyclopropyl-4,4,4-trifluoro-3-hydroxybutylsulfonimidoyl)butanoic acid]	< 1000	20 to 2000
N=S(=O)(CC[C@H](N)C(=O)O)CCC(O)(c1ccccn1)C(F)(F)F (stereo partly drawn) [Compound 350, (2S)-2-amino-4-(4,4,4-trifluoro-3-hydroxy-3-(pyridin-2-yl)butylsulfonimidoyl)butanoic acid]	< 1000	≤ 20
N[C@@H](CCS(=O)(=O)CCC(O)(c1ccccn1)C(F)(F)F)C(=O)O (stereo partly drawn) [Compound 351, (2S)-2-amino-4-((4,4,4-trifluoro-3-hydroxy-3-(pyridin-2-yl)butyl)sulfonyl)butanoic acid]	≥ 1000	≤ 20
CCC(O)(CCS(=N)(=O)CC[C@H](N)C(=O)O)C(F)(F)F (some centres unmarked) [Compound 352]	< 1000	20 to 2000
CC(C)C(O)(CCS(=N)(=O)CC[C@H](N)C(=O)O)C(F)(F)F (some centres unmarked) [Compound 353]	≥ 1000	≤ 20
N=S(=O)(CC[C@H](N)C(=O)O)CCC(O)(Cc1ccccc1)C(F)(F)F (some centres unmarked) [Compound 354]	≥ 1000	20 to 2000
N=S(=O)(CC[C@H](N)C(=O)O)CCC(O)(C1CCCCC1)C(F)(F)F (some centres unmarked) [Compound 355]	≥ 1000	20 to 2000
N=S(=O)(CC[C@H](N)C(=O)O)CCC(O)(C1CCCC1)C(F)(F)F (some centres unmarked) [Compound 356]	≥ 1000	20 to 2000
N=S(=O)(CC[C@H](N)C(=O)O)CCC(O)(C1CCC1)C(F)(F)F (some centres unmarked) [Compound 357]	≥ 1000	≤ 20
N=S(=O)(CC[C@H](N)C(=O)O)CCC(O)(c1ncc(-c2ccccc2)[nH]1)C(F)(F)F (some centres unmarked) [Compound 358]	< 1000	≤ 20
N=S(=O)(CC[C@H](N)C(=O)O)CCC(O)(C(F)(F)F)C12CC(C1)C2 (some centres unmarked) [Compound 359]	≥ 1000	20 to 2000
N=S(=O)(CC[C@H](N)C(=O)O)CCC(O)(c1cc2cc[nH]c2cn1)C(F)(F)F (some centres unmarked) [Compound 360]	< 1000	≤ 20
N=S(=O)(CC[C@H](N)C(=O)O)CCC(O)(c1cccnc1)C(F)(F)F (some centres unmarked) [Compound 361]	≥ 1000	20 to 2000
N=S(=O)(CC[C@H](N)C(=O)O)CCC(O)(c1ccncc1)C(F)(F)F (some centres unmarked) [Compound 362]	≥ 1000	20 to 2000
N=S(=O)(CC[C@H](N)C(=O)O)CCC(O)(c1ncccn1)C(F)(F)F (some centres unmarked) [Compound 363]	< 1000	20 to 2000
N=S(=O)(CC[C@H](N)C(=O)O)CCC(O)(c1ccnc(C(F)(F)F)c1)C(F)(F)F (some centres unmarked) [Compound 364]	≥ 1000	20 to 2000
N=S(=O)(CC[C@H](N)C(=O)O)CCC(O)(c1ccc(C(F)(F)F)nc1)C(F)(F)F (some centres unmarked) [Compound 365]	≥ 1000	20 to 2000
N=S(=O)(CC[C@H](N)C(=O)O)CCC(O)(c1ccon1)C(F)(F)F (some centres unmarked) [Compound 368]	< 1000	20 to 2000
